# Assay results: patent publication US11773381B2, “Cell penetrating peptide, conjugate comprising same, and composition comprising conjugate” (GemVax & KAEL CO., LTD., priority 2012, dated 2023)
# Test system: HeLa cell
# Experiment: Cell penetration of pep(CPP)-FITC conjugates in HeLa cell line, flow cytometry (FACS)
# Type: cell-based, Homo sapiens
# Conditions: HeLa cells, 20 μM of each carrier peptide combined with FITC, 37° C. for an hour, control cells treated only FITC
# Procedure: Homo sapiens cervix adenocarcinoma cell line as HeLa cell lines were purchased from ATCC (American Type Cell Culture). The cells were cultured in MEM supplemented with 10% fetal bovine serum (Invitrogen, USA), Earle's salts, non-essential amino acids, sodium pyruvate and 100 μg/ml penicillin and 10 units/ml streptomycin and cultured at 37° C., 5% CO2 incubator.
# Flow cytometry and Confocal microscope analysis were performed to compare the between degree of cellular uptake of the cells were treated with SEQ ID NO: 1 to SEQ ID NO: 156, pep (CPP) and control.
# The cell line was divided in a 6-well plate and cultured in a medium containing 10% fetal bovine serum (Invitrogen, USA), […] at 37° C., 5% CO2 incubator for 12 hours. After washing the cell line with PBS, starvation was induced in a Minimum Essential Medium for an hour. 20 μM of each carrier peptide was treated and cultured at 37° C. for an hour. After repeating the step of washing the cells with PBS for three times, Trypsin-EDTA was treated form 10 mins at 37° C. to separate the carrier peptide on the outside of the cell. cells were collected with refrigerated PBS and centrifugation was performed to repeat the step of washing the cells for three times. After then, the cells were suspended in 0.5 ml of PBS containing 4% Paraformaldehyde and fluorescence of the cells was analyzed using FACS Calibur (Becton Dickinson). The cellular uptake aspect of control and various peptides combined with FITC was compared and analyzed by MFI (Mean Fluorescence Intensity).
# Analysis results shown in FIG. 1 to FIG. 23 are given in detail in Table 3 below.
row,Sequence,"cellular uptake, MFI (Mean Fluorescence Intensity)"
1,AAEHRLREEILAKFLHWLMS (listed as Homo sapiens) [pep134],78.05 ± 2.26
2,AAGPLPSEAVQWLCHQAFLL (listed as Homo sapiens) [pep103],126.88 ± 2.14
3,AERLTSRVKALFSVL (listed as Homo sapiens) [pep10],559.78 ± 3.41
4,AHGHVRKAFKSHVSTLTDLQ (listed as Homo sapiens) [pep145],11.97 ± 0.78
5,ALFSVLNYE (listed as Homo sapiens) [pep29],33.5 ± 2.48
6,ALFSVLNYER (listed as Homo sapiens) [pep15],35.61 ± 1.29
7,ALFSVLNYERARRPGLLGASVLGLDDIHRA [pep2],37.6 ± 1.89
8,ALLTSRLRFI (listed as Homo sapiens) [pep5],19.06 ± 1.33
9,AQCPYGVLLKTHCPLRAAVT (listed as Homo sapiens) [pep70],21.82 ± 1.76
10,ARRPGLLG (listed as Homo sapiens) [pep33],14.36 ± 1.63
11,ARRPGLLGA (listed as Homo sapiens) [pep26],14.81 ± 1.77
12,ATQARPPPHASGPRRRLGCE (listed as Homo sapiens) [pep59],18.58 ± 0.52
13,CGPPLYQLGAATQARPPPHA (listed as Homo sapiens) [pep116],20.5 ± 0.97
14,CPPVYAETKHFLYSSGDKEQ (listed as Homo sapiens) [pep66],20.7 ± 2.57
15,DARPPPAAPSFRQVSCLKEL (listed as Homo sapiens) [pep53],16.16 ± 0.66
16,DEALGGTAFVQMPAHGLFPW (listed as Homo sapiens) [pep153],31.72 ± 1.74
17,EAEVRQHREARPALL (listed as Homo sapiens) [pep40],11.63 ± 1.11
18,EARPALLTSRLRFIPKPDGL (listed as Homo sapiens) [pep138],16.43 ± 0.91
19,EDTDPRRLVQLLRQHSSPWQ (listed as Homo sapiens) [pep72],17.57 ± 2.31
20,ERARRPGL (listed as Homo sapiens) [pep32],11.98 ± 2.92
21,ERARRPGLL (listed as Homo sapiens) [pep22],13.56 ± 0.23
22,FIPKPDGLRPIVNMD (listed as Homo sapiens) [pep42],20.82 ± 1.93
23,FLYSSGDKEQLRPSFLLSSL (listed as Homo sapiens) [pep124],23.74 ± 3.62
24,FSVLNYERAR (listed as Homo sapiens) [pep18],18.7 ± 1.21

row,Sequence,"cellular uptake, MFI (Mean Fluorescence Intensity)"
1,FVLRVRAQDPPPELY (listed as Homo sapiens) [pep46],24.67 ± 2.02
2,GAAPEPERTPVGQGSWAHPG (listed as Homo sapiens) [pep62],14.55 ± 3.71
3,GARTFRREKRAERLTSRVKA (listed as Homo sapiens) [pep82],22.44 ± 3.32
4,GASVLGLDDI (listed as Homo sapiens) [pep14],10.51 ± 3.71
5,GLLGASVL (listed as Homo sapiens) [pep34],14.41 ± 3.44
6,GLLGASVLG (listed as Homo sapiens) [pep30],14.37 ± 1.73
7,GLLGASVLGL (listed as Homo sapiens) [pep4],28.35 ± 2.54
8,GVPLGLPAPGARRRGGSASR (listed as Homo sapiens) [pep118],14.69 ± 0.33
9,KLQSIGIRQHLKRVQ (listed as Homo sapiens) [pep39],21.4 ± 0.99
10,KLTRHRVTYVPLLGSLRTAQ (listed as Homo sapiens) [pep104],36.74 ± 1.11
11,KMSVRDCAWLRRSPGVGCVP (listed as Homo sapiens) [pep133],46.79 ± 1.92
12,KSVWSKLQSIGIRQH (listed as Homo sapiens) [pep48],26.51 ± 2.36
13,KTFLRTLVRGVPEYGCVVNL (listed as Homo sapiens) [pep94],117.76 ± 4.24
14,LCSLCYGDMENKLFAGIRRD (listed as Homo sapiens) [pep92],19.91 ± 0.51
15,LDDIHRAWRTFVLRV (listed as Homo sapiens) [pep45],203.77 ± 3.26
16,LFFYRKSVWSKLQSI [pep38],380.4 ± 2.6
17,LFSVLNYERARRPGLLGASV (listed as Homo sapiens) [pep83],24.57 ± 1.36
18,LGASVLGL (listed as Homo sapiens) [pep36],15.37 ± 2.65
19,LGPQGWRLVQRGDPAAFRAL (listed as Homo sapiens) [pep109],12.46 ± 1.32
20,LKRVQLRELSEAEVRQ (listed as Homo sapiens) [pep49],13.91 ± 0.51
21,LLGASVLGL (listed as Homo sapiens) [pep12],22 ± 2.6
22,LLVTPHLTHAKTFLRLTVRG (LLVTPHLTHAKTFLRTLVRG; listed as Homo sapiens) [pep151],23.52 ± 0.56
23,LRFIPKPDGLRPIVNMDYVV (listed as Homo sapiens) [pep81],29.69 ± 2.49
24,LRRVGDDVLVHLIARCALFV (LRRVGDDVLVHLLARCALFV; listed as Homo sapiens) [pep57],568.02 ± 3.01

row,Sequence,"cellular uptake, MFI (Mean Fluorescence Intensity)"
1,LSEAEVRQHREARPALLTSR (listed as Homo sapiens) [pep80],12.45 ± 0.46
2,LVAPSCAYWVCGPPLYQLGA (LVAPSCAYQVCGPPLYQLGA; listed as Homo sapiens) [pep58],19.87 ± 0.94
3,MPRAPRCRAV (listed as Homo sapiens) [pep107],23.11 ± 0.56
4,MPRAPRCRAVRSLLRSHYRE (listed as Homo sapiens) [pep50],2228.76 ± 3.68
5,NKLFAGIRRDGLLLRLVDDF (listed as Homo sapiens) [pep150],17.46 ± 0.24
6,NYERARRPGL (listed as Homo sapiens) [pep19],13.04 ± 3.41
7,PAAGVCAREKPQGSVAAPEE (listed as Homo sapiens) [pep71],16.61 ± 0.88
8,PALPSDFKTILD (listed as Homo sapiens) [pep106],12.45 ± 0.38
9,PGLLGASVL (listed as Homo sapiens) [pep27],9.89 ± 2.51
10,PPEAFTTSVRSYLPNTVTDA (listed as Homo sapiens) [pep113],16.09 ± 2.5
11,PQDRLTEVIASIIKP (listed as Homo sapiens) [pep47],15.85 ± 1.03
12,PYMRQFVAHLQETSPLRDAV (listed as Homo sapiens) [pep146],18.32 ± 1.82
13,QETSPLRDAVVIEQSSSLNE (listed as Homo sapiens) [pep89],13.54 ± 0.75
14,QMPAHGLFPWCGLLLDTRTL (listed as Homo sapiens) [pep96],308.53 ± 3.61
15,RARRPGLL (listed as Homo sapiens) [pep35],15.54 ± 1.38
16,RAWNHSVREAGVPLGLPAPG (listed as Homo sapiens) [pep60],15.79 ± 1.63
17,RFHACVLQLPFHQQVWKNPT (listed as Homo sapiens) [pep158],87.75 ± 2.51
18,RGDPAAFRALVAQCLVCVPW (listed as Homo sapiens) [pep52],16.67 ± 2.22
19,RGKSYVQCQGIPQGSILSTL (listed as Homo sapiens) [pep91],24.41 ± 2.79
20,RKTVVNFPVEDEALGGTAFV (listed as Homo sapiens) [pep95],10.92 ± 0.07
21,RLTSRVKAL (listed as Homo sapiens) [pep7],9.51 ± 2.95
22,RLVPPGLWGSRHNERRFLRN (listed as Homo sapiens) [pep131],32.51 ± 2.38
23,RPALLTSRL (listed as Homo sapiens) [pep6],15.81 ± 1.59
